7 molecules from patent publication US9855203B2, “Preserving personal care compositions” (The Procter & Gamble Company, priority 2013, dated 2018) can be followed below.

A short description of this data set: Log water solubility of preservatives. The settings on record: logarithm base 10 of molar solubility at 25° C.; from experimental solubility or Chemsilico CS log WSo-3.0.
`O=C(O)c1ccccc1O` [Salicylic acid]: the “Log (water Solubility in mol/L)” value is −1.41 mol/L.

Regarding `C=CCCCCCCCCC(=O)O` [Undecylenic Acid], the “Log (water Solubility in mol/L)” value was −3.15 mol/L.

Take `OCc1ccccc1` [benzyl Alcohol]: the “Log (water Solubility in mol/L)” value is −0.47 mol/L.

On to `CCCCCCC(O)CO` (stereo not shown) [caprylyl glycol], for which the “Log (water Solubility in mol/L)” value is −3.08 mol/L.

As for `CCOC(=O)c1ccc(O)cc1` [ethyl paraben], the “Log (water Solubility in mol/L)” value is reported as −1.91 mol/L.

On to `OCCc1ccccc1` [phenethyl alcohol], for which the “Log (water Solubility in mol/L)” value is reported as −0.83 mol/L.

For `C/C=C/C=C/C(=O)O` [sorbic acid], the “Log (water Solubility in mol/L)” value is given as −0.33 mol/L.
